# Source: article PMC7767506, “Synthesis and Characterization of Store-Operated Calcium Entry Inhibitors Active in the Submicromolar Range” (International Journal of Molecular Sciences, 2020)
# “Also recorded” adds a separate entry of the source.
# Legend:
# [1] = tested on: SOCE in DG75 (human Burkitt lymphoma cell line); test: Thapsigargin-induced SOCE in DG75 cells, Indo-1; assay type: cell-based
# Description: (§1) We also tested P11 on the DG75 (Burkitt B lymphoma), U937 (monocytic lymphoma), and MDA-MB231 (breast carcinoma) cell lines. […] Thus, in several cell lines, full inhibition of the SOCE was already obtained at a concentration of 100 nM (Figure 3B).
# (§2) [Ca^2+]cyt was recorded by a fluorimetric ratio technique as previously described. Leukocytes were spun and resuspended at a density of 10^6 cells/mL in Hepes buffered saline (HBS; 135 mM NaCl, 5.9 mM KCl, 1.2 mM MgCl2, 11.6 mM Hepes, 11.5 mM glucose adjusted to pH 7.3 with NaOH). Due to the presence of 0.002% Ca^2+ in the NaCl, this HBS medium contained 0.1 mM of Ca^2+. Then, cells were incubated in the dark with 4 μM Indo-1-AM for one hour at room temperature under slow agitation. […] Ultraviolet light of 360 nm was used for excitation of Indo-1, and emissions at 405 and 480 nm were recorded. […] The maximum Indo-1 fluorescence (Rmax) was obtained by adding 1 µM ionomycin to the cell suspension in the presence of 10 mM extracellular CaCl2. Minimum fluorescence was determined following the depletion of external Ca^2+ with 5 mM EGTA.
# (§3) To visualize the SOCE, cells were placed into the quartz cuvette and 0.5 EGTA was added just before the beginning of the recordings. […] In the dose-response experiments, different concentrations of 2-APB and its analogs were added 30 s prior to Ca^2+ readdition.
# [2] = tested on: SOCE in U937 (human monocytic lymphoma cell line); test: Thapsigargin-induced SOCE in U937 cells, Indo-1; assay type: cell-based
# Description: as §1, §2, §3
# [3] = tested on: SOCE in MDA-MB231 (breast cancer) cells; test: Thapsigargin-induced SOCE in MDA-MB231 cells, Indo-1; assay type: cell-based, human
# Description: as §1, §2, §3
# [4] = biological target: T1, IP3R1 (Mus musculus, UniProt P11881); test: IP3-induced Ca2+ release (IICR) in permeabilized L15 fibroblasts overexpressing IP3R1; assay type: cell-based
# T1 construct: expressed in transfected cells; host or cells: L15 fibroblast cell line (gift of Katsuhiko Mikoshiba), saponin-permeabilized
# T1 sequence (P11881 whole entry): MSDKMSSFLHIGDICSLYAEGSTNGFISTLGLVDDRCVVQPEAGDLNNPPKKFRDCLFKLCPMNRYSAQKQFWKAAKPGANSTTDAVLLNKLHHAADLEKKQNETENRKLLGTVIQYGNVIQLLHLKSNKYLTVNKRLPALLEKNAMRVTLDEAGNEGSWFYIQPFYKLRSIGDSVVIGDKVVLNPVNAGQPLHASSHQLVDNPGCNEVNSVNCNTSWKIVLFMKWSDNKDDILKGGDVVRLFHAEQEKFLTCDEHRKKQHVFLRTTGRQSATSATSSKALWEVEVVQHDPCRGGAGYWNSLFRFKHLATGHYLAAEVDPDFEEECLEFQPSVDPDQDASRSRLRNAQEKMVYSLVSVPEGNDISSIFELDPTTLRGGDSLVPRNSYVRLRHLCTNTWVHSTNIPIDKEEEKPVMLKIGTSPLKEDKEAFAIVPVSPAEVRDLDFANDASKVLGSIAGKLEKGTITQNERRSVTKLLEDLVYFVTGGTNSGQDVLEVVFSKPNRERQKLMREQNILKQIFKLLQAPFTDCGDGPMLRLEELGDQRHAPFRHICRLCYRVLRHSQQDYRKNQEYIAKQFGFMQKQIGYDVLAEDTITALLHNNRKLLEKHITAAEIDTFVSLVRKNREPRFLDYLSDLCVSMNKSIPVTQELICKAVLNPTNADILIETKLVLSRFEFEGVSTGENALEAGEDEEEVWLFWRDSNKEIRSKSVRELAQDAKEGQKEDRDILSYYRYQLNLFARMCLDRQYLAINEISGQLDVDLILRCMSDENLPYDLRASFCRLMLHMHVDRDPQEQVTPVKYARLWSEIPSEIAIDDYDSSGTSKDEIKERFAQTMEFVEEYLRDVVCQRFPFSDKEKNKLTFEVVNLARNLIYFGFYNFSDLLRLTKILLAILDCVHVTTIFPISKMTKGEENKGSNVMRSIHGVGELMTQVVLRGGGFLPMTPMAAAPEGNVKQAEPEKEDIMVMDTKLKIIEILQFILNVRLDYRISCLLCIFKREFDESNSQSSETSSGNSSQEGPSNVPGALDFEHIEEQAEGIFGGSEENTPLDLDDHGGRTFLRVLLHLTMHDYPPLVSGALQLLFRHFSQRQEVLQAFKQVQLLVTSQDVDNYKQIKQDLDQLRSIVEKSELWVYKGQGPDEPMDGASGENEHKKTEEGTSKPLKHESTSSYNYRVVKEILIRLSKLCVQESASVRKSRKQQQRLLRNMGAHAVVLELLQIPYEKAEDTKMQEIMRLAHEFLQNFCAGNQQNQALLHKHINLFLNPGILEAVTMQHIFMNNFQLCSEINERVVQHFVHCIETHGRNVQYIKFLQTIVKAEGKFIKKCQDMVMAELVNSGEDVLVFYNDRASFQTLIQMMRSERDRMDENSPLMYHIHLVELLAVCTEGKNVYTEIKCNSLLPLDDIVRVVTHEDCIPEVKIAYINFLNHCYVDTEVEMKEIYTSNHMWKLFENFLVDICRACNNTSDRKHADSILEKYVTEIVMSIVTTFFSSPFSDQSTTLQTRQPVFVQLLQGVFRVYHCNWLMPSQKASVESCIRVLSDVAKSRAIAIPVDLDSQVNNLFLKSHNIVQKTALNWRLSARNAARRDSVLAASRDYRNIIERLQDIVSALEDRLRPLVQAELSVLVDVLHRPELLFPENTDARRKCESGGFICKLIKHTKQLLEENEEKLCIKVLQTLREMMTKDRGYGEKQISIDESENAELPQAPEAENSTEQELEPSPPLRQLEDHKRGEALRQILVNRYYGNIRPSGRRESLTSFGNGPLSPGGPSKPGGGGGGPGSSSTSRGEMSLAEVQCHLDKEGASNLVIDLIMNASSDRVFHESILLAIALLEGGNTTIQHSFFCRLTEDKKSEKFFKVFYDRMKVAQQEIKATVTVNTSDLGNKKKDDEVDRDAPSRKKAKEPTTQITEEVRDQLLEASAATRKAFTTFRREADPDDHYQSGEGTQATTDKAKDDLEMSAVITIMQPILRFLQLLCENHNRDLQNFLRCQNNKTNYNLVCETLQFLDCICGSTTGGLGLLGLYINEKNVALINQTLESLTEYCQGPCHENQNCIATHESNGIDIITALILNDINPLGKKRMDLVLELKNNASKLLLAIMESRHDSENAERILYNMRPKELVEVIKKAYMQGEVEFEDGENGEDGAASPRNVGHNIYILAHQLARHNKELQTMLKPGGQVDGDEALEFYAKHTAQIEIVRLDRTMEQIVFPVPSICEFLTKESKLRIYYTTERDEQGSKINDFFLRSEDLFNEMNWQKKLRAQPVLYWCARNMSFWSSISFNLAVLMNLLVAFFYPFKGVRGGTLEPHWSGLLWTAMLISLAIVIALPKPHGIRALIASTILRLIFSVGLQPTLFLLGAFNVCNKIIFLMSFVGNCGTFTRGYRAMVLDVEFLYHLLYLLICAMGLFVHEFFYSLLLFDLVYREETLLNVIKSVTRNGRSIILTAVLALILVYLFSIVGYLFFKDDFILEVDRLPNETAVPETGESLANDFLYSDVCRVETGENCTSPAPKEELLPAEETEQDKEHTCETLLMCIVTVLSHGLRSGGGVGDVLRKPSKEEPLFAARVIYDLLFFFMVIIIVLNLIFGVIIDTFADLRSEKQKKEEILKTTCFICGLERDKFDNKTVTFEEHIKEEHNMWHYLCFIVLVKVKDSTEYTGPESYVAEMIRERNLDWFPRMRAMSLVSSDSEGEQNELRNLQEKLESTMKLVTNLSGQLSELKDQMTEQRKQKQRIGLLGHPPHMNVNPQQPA
# Description: Measurements of SERCA-mediated ^45Ca^2+ store loading and IP3-dependent release from the ER Ca^2+ store were performed on permeabilized cells in unidirectional conditions. As this approach required the use of cells forming strongly adherent monolayers, we used L15 fibroblasts stably overexpressing IP3R1, similarly to our previous work.
# The L15 fibroblasts stably overexpressing IP3R1 were seeded in gelatin-coated 12-well plates (Greiner, Frickenhausen, Germany) at a density of 60,000 cells per well. Unidirectional ^45Ca^2+ flux experiments on confluent cell monolayers were performed at 30 °C after membrane permeabilization with saponin (40 µg/mL), exactly as previously described. After permeabilization, the non-mitochondrial Ca^2+ stores were loaded for 45 min in 120 mM KCl, 30 mM imidazole–HCl (pH 6.8), 5 mM MgCl2, 5 mM ATP, 0.44 mM EGTA, 10 mM NaN3, and 150 nM free ^45Ca^2+ (28 µCi mL^−1). Subsequently, efflux was initiated by incubation in efflux medium (120 mM KCl, 1 mM EGTA, 10 µM TG and 30 mM imidazole–HCl pH 6.8). The latter medium was replaced every two minutes for 18 minutes. The exact amount of Ca^2+ at each time point is calculated by summing in retrograde order the amount of radioactivity remaining in the cells at the end of the efflux and the radioactivity collected during the successive time intervals. This allows to calculate the steady-state content of the ER Ca^2+ stores (indicative for the SERCA activity, after subtraction of the loading achieved in the presence of 2 µM TG) the basal leak rate of Ca^2+ out of the stores and the IP3-induced Ca^2+ release after addition of IP3 (0.7 µM). These various parameters were measured both in control conditions or in the presence of various 2-APB analogs as indicated. To assess the effect of the 2-APB analogs on the SERCA-mediated loading of the ER Ca^2+ stores, the analogs were added during the ^45Ca^2+-loading phase as described previously. […]
# [5] = tested on: Jurkat cells; test: Cell death by trypan blue staining of Jurkat cells; assay type: cell-based, human
# Description: As this diminution in IL-2 synthesis can both be explained by the decrease of its synthesis by all cells, or by a decrease in the number of cells that can synthesize IL-2, we next evaluated cell death by trypan blue staining in the presence of PHA stimulation with and without the addition of compound P11.
# Forty-eight-well plates were seeded with 10^6 Jurkat T cells per well. Cells were then incubated for 24 h with or without 10 µg/mL PHA and 0 to 1 µM P11 in complete culture medium. After 24 h, supernatants were collected, and IL-2 amounts were quantified using a Quantikine Human IL-2 Immunoassay (R&D Systems Europe, Lille, France). Optical density (OD) was measured at 450 nm using a Victor3 plate reader (Perkin Elmer, Courtaboeuf, France). The concentration of supernatant IL-2 was determined from the OD curve obtained with the standard. Results were the mean of four repeats. In parallel plates, cell viability was accessed after treatment with trypan blue and counting with a Malassez hematimeter (Sigma-Aldrich, Saint Quentin Fallavier, France).
# [6] = tested on: Orai1-expressing lymphoblastoid cell line; test: SOCE in Orai1-expressing lymphoblastoid cell line (LCL Orai1+); assay type: cell-based, human; settings: 1 µM
# Description: We next tested P11 efficacy on two lymphoblastoid cell lines (“LCL”) established from an Orai1-deficient with a severe combined immunodeficiency (“LCL Orai1−”) and a healthy (“LCL Orai1+”) patients (Figure 3C [19]). […] However, CaCl2 addition after 10 min of TG treatment was only able to induce a massive [Ca^2+]cyt rise in LCL expressing Orai1 proteins, confirming the SOCE default of the SCID patient.
# as §2, with “Ca^2+.” for “Ca^2+. Then, cells were incubated in the dark with 4 μM Indo-1-AM for one hour at room temperature under slow agitation.”
# as §3
substance,measurement,setting,value
2-(dibiphenyl-4-ylboryloxy)ethanamine [P11],Ki,[1]; DG75 cells,32 ± 2 nM
same,concentration of full SOCE inhibition,[1]; in several cell lines (Figure 3B),100 nM
same,Ki,[2],40 ± 5 nM
same,Ki,[3],50 ± 5 nM
same,change of IP3R activity,[4]; 100 µM,−29 ± 9%
same,effect on IP3R,[4]; concentrations < 1 µM,devoid of any inhibitory activity; also recorded: without any effect
same,dead cells (trypan blue),"[5]; 1 µM P11 alone, 24 h",4.0 ± 0.4%
same,dead cells (trypan blue),"[5]; PHA + 1 µM P11, 24 h",33.2 ± 1.3%
same,effect on [Ca2+]cyt after SOCE activation,[6],immediate decrease of [Ca^2+]cyt
